The text below walks through data of article PMC9935382, “Sorting nexin-dependent therapeutic targeting of oncogenic epidermal growth factor receptor” (Cancer Gene Therapy, 2022).

Assay [1] concerns MCF10A cells. The assay is described as follows: MTT cell viability, MCF10A. The class given is cell-based. The conditions noted are these: immortalized breast epithelial line, 3 days. As for the experimental part: (§1) 2 × 10^3 cells were plated per well in a 96 well plate and left to adhere overnight. The following day, drug treatments were started and continued for 3 days. To measure the viability of the remaining cell population, 10% 3-(4,5-dimethylthiazol-2-yl)-2,5-diphenyltetrazolium (MTT) in media was added and incubated for 2 hours and conversion of MTT to formazan at 540 nm using a biotech Synergy LX plate reader.
(§2) A–G Cells were plated in a 96-well plate at 2000 cells per well. […] Cell viability was then measured with an MTT assay, viability of treated cells were compared with the vehicle control. H MDA-MB-468 cells were plated and incubated+/− IPTG for 2 days prior to drug treatment to induce expression of an EGFR-targeted shRNA.

The subject of assay [2] is CHO cells. As to the kind of experiment: MTT cell viability, CHO. The class given is cell-based, Chinese hamster. The conditions noted are these: CHO cells lack EGFR expression, 3 days. As for the experimental part: as §1, §2
Supplementary Figure 1. A. BT20 triple negative breast cancer cells were treated with SNX1.1, 1.2, or 1.3 for 3 days and their viability was measured via MTT analysis. B. CHO cells were treated with PTD4 or SNX1.3 for 3 days and their viability was measured via MTT analysis.

For assay [3], the system named is MDA-MB-231 cells. As to conditions: previously characterized; no reference given; cited from earlier work.
The subject of assay [4] is T47D cells. As to conditions: previously characterized; no reference given; cited from earlier work.
The target in assay [5] is EGFR kinase domain protein (EGFRkin), residues 672-998 with N-terminal His-tag (human). As to the kind of experiment: MST; His-EGFRkin (50 nM) labelled through the His-tag with RED-tris-NTA 2nd Generation dye; SNX peptides or SNX-BAR protein titrated, 16 1:1 serial dilutions from 20 uM in PBS-T; room temperature; Monolith NT.115 pico.
Assay [6] has as its target T1, EGFR kinase domain (residues 672–998) (Homo sapiens, UniProt P00533).
T1 construct: baculovirus insect cell expression system (residues 672–998 with N-terminal His-tag followed by TEV cleavage site); made in house; host or cells: Sf9 insect cells (Bac-to-Bac baculovirus, pFastBacHT)
As to the kind of experiment: Microscale thermophoresis (MST) binding to EGFRkin. The conditions noted are these: MST, His-EGFRkin 50 nM (RED-tris-NTA dye) titrated with ligand, 16 1:1 serial dilutions from 20 μM, PBS-T, room temperature. (MST reads how a fluorescent partner responds to local heating, with and without ligand.)
Procedure: Briefly pFastBacHT plasmid containing the cDNA of EGFR kinase domain with N-terminal His-tag was transformed into DH10Bac E. coli to generate bacmid DNA. P1 virus was generated by transfecting 2.0 mL of sf9 cells at 1.0 million cells/ml density with the purified bacmid DNA (200–3000 ng/μL). The P1 virus was harvested after 5–7 days following transfection. The P1 virus was diluted 100-fold into an sf9 cell culture at a density of 2.0 million cells/ml and cultured for 3 days. Supernatant containing the P2 virus was collected by centrifugation and diluted 40-fold into 1.0 L of sf9 cells at a density of 2.0 million cells/ml. After 2.5–3 days, cell pellets were harvested by centrifugation at 3500 x g at 4 °C for 20 min, and flash frozen in liquid nitrogen prior to storage at −80 °C.
To purify the EGFR kinase domain, Sf9 cell pellets (~10 g) was thawed on ice and homogenized with 2 passages on an EmulsiFlex-C5 (Avestin) in 50 mL of lysis buffer (50 mM Tris pH 7.5, 600 mM NaCl, 1 mM EDTA, 1 mM TCEP, protease inhibitors, DNAase, and 10% Glycerol). The lysate was centrifugated and supernatant was collected and loaded onto a 1.0 mL HisTrap FF column (GE) at a flow rate of 1.0 ml/min. Following loading, the column was washed with 20 column volumes of wash buffer (50 mM Tris pH 7.5, 600 mM NaCl, 20 mM Imidazole, 1 mM TCEP, and 10% Glycerol) and eluted with a linear gradient of elution buffers containing 20 and 300 mM imidazole. Fractions containing the EGFR kinase domain proteins were combined and concentrated to less than 1.0 mL. The concentrated proteins were loaded onto a Superdex 200 10/300 GL column (GE) equilibrated in buffer (20 mM Tris pH 7.5, 100 mM NaCl) for further purification. The purified proteins were concentrated, flash frozen in liquid nitrogen, and stored at −80 °C.
MST experiments were carried out using a Monolith NT.115 pico instrument (NanoTemper Technologies, Munich Germany). […] Kd values were derived from the concentration-dependent changes in normalized fluorescence (Fnorm). Data were analyzed using NanoTemper MO. […]

Entries after “also recorded” stand apart in the source; their conditions may differ.

Turning to `CNC(=O)CN1CCC(Oc2cc3c(Nc4cccc(Cl)c4F)ncnc3cc2OC)CC1` [Sapitinib], the results for the “impact on cell viability / growth” value in assay [1] and in assay [2] were “more effective at inhibiting cell growth in immortalized cells than in cancer cells; also recorded: significantly reduces viability of normal cells” and “more effective at inhibiting cell growth in immortalized cells than in cancer cells”, respectively.

`C#Cc1cccc(Nc2ncnc3cc(OCCOC)c(OCCOC)cc23)c1` [erlotinib]: the resistance to erlotinib result in assay [3] and in assay [4] was “resistant” in each case.

In assay [5], “human SNX-BAR protein (SNX1 BAR domain, residues 301-522) (from UniProt Q13596 301-522) (domain or fragment)” registered an equilibrium dissociation constant (Kd) of 3000 nM.

B1: BAR domain: human SNX1 BAR domain, residues 301–522, expressed in E. coli (protein)
chain: KMNESDIWFEEKLQEVECEEQRLRKLHAVVETLVNHRKELALNTAQFAKSLAMLGSSEDNTALSRALSQLAEVEEKIEQLHQEQANNDFFLLAELLSDYIRLLAIVRAAFDQRMKTWQRWQDAQATLQKKREAEARLLWANKPDKLQQAKDEILEWESRVTQYERDFERISTVVRKEVIRFEKEKSKDFKNHVIKYLETLLYSQQQLAKYWEAFLPEAKAIS
modifications: left off: MBP, N-terminal, cleaved
notes: human SNX1 BAR domain, residues 301–522, expressed in E. coli
For B1, the equilibrium dissociation constant (Kd) stood at 3000 nM in assay [6] and 2900 ± 1700 nM in assay [6] (listed as SNX1 Bar).

By Kd is commonly meant the concentration at which binding is half-saturated. Lower therefore signals tighter binding.
